Data on nine compounds can be found in ChEMBL document CHEMBL4819136, “Design and synthesis of garlic-related unsymmetrical thiosulfonates as potential Alzheimer's disease therapeutics: In vitro and in silico study” (Bioorg Med Chem, 2021).

The target in one assay is Cholinesterase (Homo sapiens, UniProt P06276). Briefly: Inhibition of human serum BuChE using butyrylthiocholine iodide as substrate preincubated with enzyme for 10 mins followed by substrate addition and measured by Ellman's method. Format: cell-free.
Assay [1] addresses T1, Acetylcholinesterase (Homo sapiens, UniProt P22303).
Description: Inhibition of human recombinant AChE using acetylthiocholine iodide as substrate preincubated with enzyme for 10 mins followed by substrate addition and measured by Ellman's method
In assay [2] the target is T1, Acetylcholinesterase. As to the kind of experiment: Potency index, ratio of rivastigmine IC50 to test compound IC50 for human recombinant AChE using acetylthiocholine iodide as substrate preincubated with enzyme for 10 mins followed by substrate addition and measured by Ellman's method. Background: Ellman's reagent forms a yellow product with free thiols.

What is called IC50 is the concentration that gives 50% inhibition. Read a high IC50 as weaker potency. Usually Ki stands for a measure of affinity in units of concentration, obtained from inhibition or displacement. Higher therefore signals lower affinity.

T1 sequence (P22303 whole entry): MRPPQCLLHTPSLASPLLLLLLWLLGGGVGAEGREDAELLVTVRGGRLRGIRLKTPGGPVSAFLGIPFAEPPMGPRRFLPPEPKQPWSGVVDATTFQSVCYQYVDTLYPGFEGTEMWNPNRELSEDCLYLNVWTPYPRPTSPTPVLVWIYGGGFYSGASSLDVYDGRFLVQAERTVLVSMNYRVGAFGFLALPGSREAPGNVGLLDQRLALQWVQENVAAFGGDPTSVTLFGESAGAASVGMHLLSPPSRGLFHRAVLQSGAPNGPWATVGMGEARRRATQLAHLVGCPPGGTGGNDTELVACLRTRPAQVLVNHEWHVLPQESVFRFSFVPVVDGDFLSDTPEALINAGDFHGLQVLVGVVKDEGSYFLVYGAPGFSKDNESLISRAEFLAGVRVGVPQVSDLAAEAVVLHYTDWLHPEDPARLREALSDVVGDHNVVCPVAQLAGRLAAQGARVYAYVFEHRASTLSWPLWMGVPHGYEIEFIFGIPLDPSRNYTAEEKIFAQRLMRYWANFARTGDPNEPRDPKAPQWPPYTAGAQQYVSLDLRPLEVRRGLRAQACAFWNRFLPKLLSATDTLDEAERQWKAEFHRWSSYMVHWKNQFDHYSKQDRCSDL
Chain of Cholinesterase (P06276 whole entry): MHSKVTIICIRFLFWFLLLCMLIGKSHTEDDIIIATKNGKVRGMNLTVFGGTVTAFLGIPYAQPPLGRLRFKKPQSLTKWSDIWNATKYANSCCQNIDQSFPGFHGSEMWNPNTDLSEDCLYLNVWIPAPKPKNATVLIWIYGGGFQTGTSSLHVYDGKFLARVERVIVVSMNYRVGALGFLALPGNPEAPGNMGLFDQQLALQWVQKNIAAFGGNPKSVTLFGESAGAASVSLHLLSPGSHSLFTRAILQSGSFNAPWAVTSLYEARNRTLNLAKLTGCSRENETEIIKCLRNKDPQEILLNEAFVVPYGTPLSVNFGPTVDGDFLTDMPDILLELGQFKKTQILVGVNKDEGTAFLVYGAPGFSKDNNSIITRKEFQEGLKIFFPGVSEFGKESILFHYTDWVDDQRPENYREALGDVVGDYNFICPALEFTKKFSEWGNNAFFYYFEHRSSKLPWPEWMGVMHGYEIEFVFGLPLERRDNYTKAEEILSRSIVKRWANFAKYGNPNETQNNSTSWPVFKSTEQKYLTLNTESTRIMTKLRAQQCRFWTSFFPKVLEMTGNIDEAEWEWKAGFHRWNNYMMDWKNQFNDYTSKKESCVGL

As for `Cc1ccc(S(=O)(=O)SCc2ccc([N+](=O)[O-])cc2)cc1`, on Cholinesterase, the IC50 was found to be 214 nM and the Ki was found to be 303 nM. Also, on Acetylcholinesterase [1], the IC50 came out at 212 nM and the Ki was 251 nM.

Regarding `Cc1ccc(S(=O)(=O)SCc2ccc(F)cc2)cc1`, on Cholinesterase, inhibition was half-maximal at 303 nM (IC50) and the Ki was 208 nM. At Acetylcholinesterase [1], this compound had an IC50 of 313 nM and a Ki of 327 nM.

`Cc1ccc(S(=O)(=O)SCc2ccc(C(F)(F)F)cc2)cc1`: the IC50 against Cholinesterase was found to be 118 nM; against Acetylcholinesterase [1], 86.6 nM. Besides, the Ki came to 103 nM at Cholinesterase and 148 nM at Acetylcholinesterase [1].

At Cholinesterase, `Cc1ccc(S(=O)(=O)SCc2ccc(OC(F)(F)F)cc2)cc1` yielded an IC50 of 53.3 nM and a Ki of 17.5 nM. On Acetylcholinesterase [1], this compound displayed a half-inhibitory concentration (IC50) of 129 nM and a Ki of 198 nM.

As to `Cc1ccc(S(=O)(=O)SCc2ccc(Cl)cc2)cc1`, the IC50 on Cholinesterase amounted to 315 nM; on Acetylcholinesterase [1] it was 478 nM. In addition, the Ki turned out to be 199 nM on Cholinesterase and 714 nM on Acetylcholinesterase [1].

On to `Cc1ccc(S(=O)(=O)SCc2ccc(C(C)C)cc2)cc1`, for which, on Cholinesterase, 84.5 nM corresponded to half-maximal inhibition (IC50) and the Ki was determined as 37.9 nM. Further, at Acetylcholinesterase [2], the Ratio IC50 amounted to 5. At Acetylcholinesterase [1], this compound gave an IC50 of 11.9 nM and a Ki of 25.6 nM.

As for `Cc1ccc(S(=O)(=O)SCc2ccc(C#N)cc2)cc1`, at Cholinesterase, the IC50 is 203 nM and the affinity corresponds to a Ki of 201 nM. At Acetylcholinesterase [1], the midpoint of inhibition, the IC50, lay at 196 nM and the Ki was determined as 166 nM.

At Cholinesterase, `COc1ccc(CSS(=O)(=O)c2ccc(C)cc2)cc1` came in with an IC50 of 202 nM and a Ki of 251 nM. Besides, on Acetylcholinesterase [1], 488 nM corresponded to half-maximal inhibition (IC50) and the affinity corresponds to a Ki of 219 nM.

Consider `Cc1ccc(S(=O)(=O)SCc2ccccc2)cc1`, for which the IC50 was determined as 318 nM against Cholinesterase and 517 nM at Acetylcholinesterase [1]. In addition, the Ki is 218 nM at Cholinesterase and 390 nM at Acetylcholinesterase [1].
